According to EP3822285A1, “VARIANT NISIN PEPTIDES” (University College Cork-National University of Ireland, Cork, priority 2019, dated 2021):
Converted amounts (≈) assume the structure as drawn. Marks after values point to notes of the source that are not given here.

Experiments:
Assay type in all cases: cell-based
T. brockianus = assay: Minimum inhibitory concentration assay (Thermus); details: pure peptide, mean of triplicate assays
Description: (§1) Minimum inhibitory concentration (MIC) determinations for gram negative Thermus strains were carried out in triplicate in round bottom microtitre plates (Corning). 96 well microtitre plates were pre-treated with bovine serum albumin (BSA) prior to addition of the peptides. Briefly, to each well of the microtire plates 200 µl of d.H2O (filtered with 0.2 µm filter) containing 1% (w/w) BSA was added and incubated at 37°C for 30 mins. The wells were washed with 200 µl of IX phosphate buffered saline (PBS) for 2 times after removing 1% BSA d.H2O. 100 µl of growth media, i.e., Castenholz, was added to each well. […] Target strains were grown overnight as per conditions mention above, 0.5 ml of overnight was subcultured in to 10 mls of fresh Castenholz medium and allowed to grow to an OD600 of ∼0.5. 20µl of this subculture was added to 980µl of media, 150µl of this dilution added to 14.85 ml of growth media. 100µl of this dilution added to each well resulting in a final inoculum of ∼10^5 cfu/ml in 200µl. The plates were incubated at 55° C for 3 days and the MIC was determined as the lowest concentration at which no growth was visible.
(§2) The bioactivity of cell-free supernatant can be influenced by altered diffusion rates, solubility, production or specific activity. To determine to what extent, if any, the bioactivity noted above is due to increased specific activity, nisin A (control) and the derivatives were purified and their molecular weights confirmed by MALDI TOF mass spectrometry (Table: 6) (Figure: 4). These peptides were used to perform minimum inhibitory concentration assays against six Thermus strains, i.e., T. thermophilus HB27, T. scotoductus SE-1, T. rehai, T. oshimai, T. aquaticus and T. brockianus.

T. scotoductus SE-1 = assay: Minimum inhibitory concentration assay (Thermus); details: pure peptide, mean of triplicate assays
Description: as §1, §2

T. thermophilus HB27 = assay: Minimum inhibitory concentration assay (Thermus); details: pure peptide, mean of triplicate assays
Description: as §1, §2

T. oshimai = assay: Minimum inhibitory concentration assay (Thermus); details: pure peptide, mean of triplicate assays
Description: as §1, §2

T. aquaticus = assay: Minimum inhibitory concentration assay (Thermus); details: for MIC: pure peptide, mean of triplicate assays
Description: as §1, §2

T. rehai = assay: Minimum inhibitory concentration assay (Thermus); details: pure peptide, mean of triplicate assays
Description: as §1, §2

[1] = tested on: Thermus thermophilus HB27; assay: Agar diffusion assay with cell free supernatant of producing strains; details: zone diameter relative to Nisin A wild type (100)
Description: Agar diffusion assays were carried out in triplicate using nisin producing and indicator (T. thermophilus HB27 and T. scotoductus Se-1) strains. Both the producer and indicator strains were cultured as per conditions described above. One ml of overnight culture of indicators were added to 50ml of molten Castenholz agar, briefly swirled and poured. Wells were made using sterile glass pipette. To generate cell free supernatant from nisin producing strains, 10 mls of overnight cultures of the strains were centrifuged at 950g for 20 mins. The cell free supernatant was transferred to a sterile tube. 50 µl of cell free supernatant was added to wells described above. Plates were incubated at 55°C for 3 days and the zone of clearance measured.
The cell free supernatant of nisin A and nisin variant producing L. lactis was used to determine the bioactivity of these lantibiotics against T. thermophilus HB27 and T. scotoductus SE-1 using agar diffusion assays, with the zone of clearance representing the bioactivity of the producing strain (i.e., representing a combination of the amount of the peptide produced and the specific activity of that peptide). […] Among the variants tested were those with altered N-terminal domains. The N-terminal domain of nisin is important for binding with the pyrophosphate moiety of lipid II to mediate pore formation in the cell membrane. Lysine (K) at position 12, which serves as a small flexible region between ring B and C, and is one of among the 5 positively charged residues (K12, K22, K34, H27, […]) of nisin A that contributes to its cationic nature and its attraction to the cell envelope.

Structure (SMILES) | MIC (T. brockianus) [µM] | MIC (T. scotoductus SE-1) [µM] | MIC (T. thermophilus HB27) [µM] | MIC (T. oshimai) [µM] | fold better activity than nisin A (T. aquaticus) [fold] | MIC (T. aquaticus) [µM] | MIC (T. rehai) [µM] | % difference [1]
C=C(NC(=O)[C@@H](NC(=O)[C@H](Cc1c[nH]cn1)NC(=O)[C@@H](NC(=O)[C@H](CO)NC(=O)[C@@H]1CS[C@@H](C)[C@H]2NC(=O)[C@H](C)NC(=O)[C@H](NC(=O)[C@H](CCCCN)NC(=O)[C@H](CCSC)NC(=O)[C@H](CC(N)=O)NC(=O)[C@@H]3CS[C@@H](C)[C@@H](NC(=O)[C@H](CC(C)C)NC(=O)[C@@H]4CS[C@@H](C)[C@@H](NC(=O)[C@@H]5CSC[C@@H](NC(=O)/C(=C/C)NC(=O)[C@@H](N)[C@@H](C)CC)C(=O)N[C@@H]([C@@H](C)CC)C(=O)NC(=C)C(=O)N[C@@H](CC(C)C)C(=O)N5)C(=O)N5CCC[C@H]5C(=O)NCC(=O)N4)C(=O)NCC(=O)N[C@@H](C)C(=O)N[C@@H](CC(C)C)C(=O)N[C@@H](CCSC)C(=O)NCC(=O)N3)[C@H](C)SC[C@H](NC2=O)C(=O)N[C@@H](Cc2c[nH]cn2)C(=O)N1)[C@@H](C)CC)C(C)C)C(=O)N[C@@H](CCCCN)C(=O)O [K12L] | 0.0312 (≈ 0.104 µg/mL) | 0.0625 (≈ 0.209 µg/mL) | 0.0156 (≈ 0.0521 µg/mL) | 0.0078 (≈ 0.026 µg/mL) | 2 | 0.0078 (≈ 0.026 µg/mL) | 0.0078 (≈ 0.026 µg/mL) | 120%
C=C(NC(=O)[C@@H](NC(=O)[C@H](Cc1c[nH]cn1)NC(=O)[C@@H](NC(=O)[C@H](CO)NC(=O)[C@@H]1CS[C@@H](C)[C@H]2NC(=O)[C@H](C)NC(=O)[C@H](NC(=O)[C@H](CCCCN)NC(=O)[C@H](C)NC(=O)[C@H](CC(N)=O)NC(=O)[C@@H]3CS[C@@H](C)[C@@H](NC(=O)[C@H](CCCCN)NC(=O)[C@@H]4CS[C@@H](C)[C@@H](NC(=O)[C@@H]5CSC[C@@H](NC(=O)/C(=C/C)NC(=O)[C@@H](N)[C@@H](C)CC)C(=O)N[C@@H]([C@@H](C)CC)C(=O)NC(=C)C(=O)N[C@@H](CC(C)C)C(=O)N5)C(=O)N5CCC[C@H]5C(=O)NCC(=O)N4)C(=O)NCC(=O)N[C@@H](C)C(=O)N[C@@H](CC(C)C)C(=O)N[C@@H](CCSC)C(=O)NCC(=O)N3)[C@H](C)SC[C@H](NC2=O)C(=O)N[C@@H](Cc2c[nH]cn2)C(=O)N1)[C@@H](C)CC)C(C)C)C(=O)N[C@@H](CCCCN)C(=O)O [M21A] | 0.0625 (≈ 0.206 µg/mL) | 0.0312 (≈ 0.103 µg/mL) | 0.0312 (≈ 0.103 µg/mL) | 0.0078 (≈ 0.0257 µg/mL) |  | 0.0078 (≈ 0.0257 µg/mL) | 0.0312 (≈ 0.103 µg/mL) | 158* (0.001) %
C=C(NC(=O)[C@@H](NC(=O)[C@H](Cc1c[nH]cn1)NC(=O)[C@@H](NC(=O)[C@H](CO)NC(=O)[C@@H]1CS[C@@H](C)[C@H]2NC(=O)[C@H](C)NC(=O)[C@H](NC(=O)[C@H](CCC(N)=O)NC(=O)[C@H](C)NC(=O)[C@@H]3CCCN3C(=O)[C@@H]3CS[C@@H](C)[C@@H](NC(=O)[C@H](CCCCN)NC(=O)[C@@H]4CS[C@@H](C)[C@@H](NC(=O)[C@@H]5CSC[C@@H](NC(=O)/C(=C/C)NC(=O)[C@@H](N)[C@@H](C)CC)C(=O)N[C@@H]([C@@H](C)CC)C(=O)NC(=C)C(=O)N[C@@H](CC(C)C)C(=O)N5)C(=O)N5CCC[C@H]5C(=O)NCC(=O)N4)C(=O)NCC(=O)N[C@@H](C)C(=O)N[C@@H](CC(C)C)C(=O)N[C@@H](CCSC)C(=O)NCC(=O)N3)[C@H](C)SC[C@H](NC2=O)C(=O)N[C@@H](Cc2c[nH]cn2)C(=O)N1)[C@@H](C)CC)C(C)C)C(=O)N[C@@H](CCCCN)C(=O)O [PAQ] | 0.0312 (≈ 0.102 µg/mL) | 0.0625 (≈ 0.205 µg/mL) | 0.0078 (≈ 0.0256 µg/mL) | 0.0039 (≈ 0.0128 µg/mL) |  | 0.0156 (≈ 0.0511 µg/mL) | 0.0156 (≈ 0.0511 µg/mL) | 138* (0.02) %
